The text below walks through data of patent US10829520B2, “Beta-hairpin peptidomimetics” (POLYPHOR AG, priority 2015, dated 2020).

Where a SMILES comes first, the peptide text is derived from it. Bridges are numbered along the chain shown (N, C = ends). [ ]: non-standard residue; d: D form. Pen = CC(C)(S)[C@H](N)C(=O)O; Tle = CC(C)(C)[C@H](N)C(=O)O; dDab = NCC[C@@H](N)C(=O)O; Dab = NCC[C@H](N)C(=O)O; Dap = NC[C@H](N)C(=O)O; Sar = CNCC(=O)O

Common to all, as to assay type: cell-based
The test system of series [1] is human red blood cells (hRBC). In words: Hemolysis of human red blood cells. The following applies: red cells of human, 1 h, 100 μg/mL. The method, boiled down: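 Hemolysis was read as supernatant absorbance at 540 nm and expressed as a percentage of Triton X-100 (2.5%) lysis. Washed human red cells (20% v/v) had been exposed to each peptide at 100 μg/mL for 1 h at 37° C.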

Series [2] relates to Klebsiella pneumoniae SSI #3010. The conditions noted are these: SSI #3010. The method, boiled down: (§1)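 Read-out is the minimal inhibitory concentration in μg/mL, taken as the lowest peptide level without visible growth after 18-20 h at 35° C. Testing followed CLSI broth microdilution in cation-adjusted Mueller-Hinton II broth plus 0.002% Polysorbate 80, with roughly 10^6 CFU/mL.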

Series [3] relates to Escherichia coli ATCC 25922. The conditions noted are these: ATCC 25922. The method, boiled down: as §1
Series [4] relates to Pseudomonas aeruginosa ATCC 27853. The conditions noted are these: ATCC 27853. The method, boiled down:
as §1

A further series has as its system Escherichia coli 926415. The following applies: 926415.
Series [5] concerns Acinetobacter baumannii 872842. The conditions noted are these: 872842.
The subject of series [6] is Acinetobacter baumannii DSM 30008. The following applies: DSM 30008. The method, boiled down: as §1
Series [7] deals with Klebsiella pneumoniae 968733. The following applies: 968733.

For `CC(C)C[C@@H]1NC(=O)[C@H](CO)NC(=O)[C@H](Cc2ccc(O)cc2)NC(=O)[C@@H]2CCCN2C(=O)[C@H]2CCCN2C(=O)[C@H](Cc2c[nH]cn2)NC(=O)[C@H](C)NC(=O)[C@H](C(C)C)NC(=O)[C@@H](NC(=O)[C@@H](N)CC(C)C)CSSC[C@@H](C(=O)NCC(=O)N[C@@H](CCN)C(=O)N[C@H](C(=O)N[C@@H](CCN)C(=O)N[C@H]2CCNC(=O)[C@H]([C@@H](C)O)NC(=O)[C@H](CCN)NC(=O)[C@H](CCN)NC(=O)[C@H](CC(C)C)NC(=O)[C@@H](CC(C)C)NC(=O)[C@H](CCN)NC2=O)[C@@H](C)O)NC1=O` [Ex. 156] (H-LCVAH[dP]PYSLCG[Dab]T[Dab][Dab][Dab][dL]L[Dab][Dab]T; disulfide 2-11; lactam 16-C), the “Hemolysis at 100 μg/mL” value in series [1] is listed as less than 1%. Further, in series [2], the “Klebsiella pneumoniae SSI #3010 MIC” value came out at 0.125 µg/mL. Further, the “Escherichia coli ATCC 25922 MIC” value in series [3] is 0.125 µg/mL. Also, the “Pseudomonas aeruginosa ATCC 27853 MIC” value in series [4] worked out at 0.25 µg/mL. In the series on Escherichia coli 926415, the “Escherichia coli 926415 MIC” value was 1 µg/mL. Moreover, the “Acinetobacter baumannii 872842 MIC” value in series [5] amounted to 0.0625 µg/mL. Further, in series [6], the “Acinetobacter baumannii DSM 30008 MIC” value is 0.125 µg/mL. Besides, the “Klebsiella pneumoniae 968733 MIC” value in series [7] was 0.5 µg/mL.
For the compound `CC(C)C[C@@H]1NC(=O)[C@@H](CC(C)C)NC(=O)[C@H](CCN)NC(=O)[C@@H](NC(=O)[C@H](CCN)NC(=O)[C@@H](NC(=O)[C@H](CCN)NC(=O)CNC(=O)[C@@H]2CSSC[C@H](NC(=O)[C@@H](N)CC(C)C)C(=O)N[C@@H](C(C)C)C(=O)N[C@@H](C)C(=O)N[C@@H](Cc3ccc(O)cc3)C(=O)N[C@H](CCN)C(=O)N3CCC[C@H]3C(=O)N[C@@H](CC(C)C)C(=O)N[C@@H](CO)C(=O)N[C@@H](Cc3ccc(O)cc3)C(=O)N2)[C@@H](C)O)CCNC(=O)[C@H]([C@@H](C)O)NC(=O)[C@H](CCN)NC(=O)[C@H](CCN)NC1=O` [Ex. 157] (H-LCVAY[dDab]PLSYCG[Dab]T[Dab][Dab][Dab][dL]L[Dab][Dab]T; disulfide 2-11; lactam 16-C), the “Hemolysis at 100 μg/mL” value in series [1] is reported as less than 1%. Also, in series [2], the “Klebsiella pneumoniae SSI #3010 MIC” value was 0.125 µg/mL. Moreover, the “Escherichia coli ATCC 25922 MIC” value in series [3] stood at 0.0625 µg/mL. In series [4], the “Pseudomonas aeruginosa ATCC 27853 MIC” value came to 0.5 µg/mL. For the same compound, in the series with Escherichia coli 926415, the “Escherichia coli 926415 MIC” value was 0.125 µg/mL. The “Acinetobacter baumannii 872842 MIC” value in series [5] amounted to 0.03125 µg/mL. Further, the “Acinetobacter baumannii DSM 30008 MIC” value in series [6] turned out to be 0.0625 µg/mL. Also, the “Klebsiella pneumoniae 968733 MIC” value in series [7] came to 1 µg/mL.
With `CC(C)C[C@@H]1NC(=O)[C@H](CO)NC(=O)[C@H](Cc2ccc(O)cc2)NC(=O)[C@@H]2CCCN2C(=O)[C@H]2CCCN2C(=O)[C@H]([C@@H](C)O)NC(=O)[C@H](C)NC(=O)[C@H](Cc2ccc(O)cc2)NC(=O)[C@@H](NC(=O)[C@@H](N)CC(C)C)CSSC[C@@H](C(=O)NCC(=O)N[C@@H](CCN)C(=O)N[C@H](C(=O)N[C@@H](CCN)C(=O)N[C@H]2CCNC(=O)[C@H]([C@@H](C)O)NC(=O)[C@H](CCN)NC(=O)[C@H](CCN)NC(=O)[C@H](CC(C)C)NC(=O)[C@@H](CC(C)C)NC(=O)[C@H](CCN)NC2=O)[C@@H](C)O)NC1=O` [Ex. 158] (H-LCYAT[dP]PYSLCG[Dab]T[Dab][Dab][Dab][dL]L[Dab][Dab]T; disulfide 2-11; lactam 16-C), the “Hemolysis at 100 μg/mL” value in series [1] is less than 1%. In addition, the “Klebsiella pneumoniae SSI #3010 MIC” value in series [2] stood at 0.125 µg/mL. In addition, in series [3], the “Escherichia coli ATCC 25922 MIC” value turned out to be 0.125 µg/mL. In series [4], the “Pseudomonas aeruginosa ATCC 27853 MIC” value came out at 0.5 µg/mL. Moreover, the “Escherichia coli 926415 MIC” value with Escherichia coli 926415 stood at 4 µg/mL. For the same compound, in series [5], the “Acinetobacter baumannii 872842 MIC” value was 0.25 µg/mL. Also, the “Acinetobacter baumannii DSM 30008 MIC” value in series [6] amounted to 0.25 µg/mL. The “Klebsiella pneumoniae 968733 MIC” value in series [7] came to 8 µg/mL.
For `CC(C)C[C@@H]1NC(=O)[C@@H](CC(C)C)NC(=O)[C@H](CCN)NC(=O)[C@@H](NC(=O)[C@H](CCN)NC(=O)[C@@H](NC(=O)[C@H](CCN)NC(=O)CN(C)C(=O)[C@@H]2CSSC[C@H](NC(=O)[C@@H](N)CC(C)C)C(=O)N[C@@H](C(C)C)C(=O)N[C@@H](CO)C(=O)N[C@@H](CO)C(=O)N3CCC[C@@H]3C(=O)N3CCC[C@H]3C(=O)N[C@@H](CC(C)C)C(=O)N[C@@H](CN)C(=O)N[C@@H](Cc3ccc(O)cc3)C(=O)N2)[C@@H](C)O)CCNC(=O)[C@H]([C@@H](C)O)NC(=O)[C@H](CCN)NC(=O)[C@H](CCN)NC1=O` [Ex. 159] (H-LCVSS[dP]PL[Dap]YC[Sar][Dab]T[Dab][Dab][Dab][dL]L[Dab][Dab]T; disulfide 2-11; lactam 16-C), in series [1], the “Hemolysis at 100 μg/mL” value is recorded as less than 1%. For the same compound, the “Klebsiella pneumoniae SSI #3010 MIC” value in series [2] was determined as 1 µg/mL. For the same compound, the “Escherichia coli ATCC 25922 MIC” value in series [3] was determined as 0.5 µg/mL. Also, the “Pseudomonas aeruginosa ATCC 27853 MIC” value in series [4] came out at 2 µg/mL. The “Escherichia coli 926415 MIC” value in the series on Escherichia coli 926415 turned out to be 2 µg/mL. In addition, the “Acinetobacter baumannii 872842 MIC” value in series [5] stood at 0.25 µg/mL. Also, the “Acinetobacter baumannii DSM 30008 MIC” value in series [6] was 0.5 µg/mL. For the same compound, in series [7], the “Klebsiella pneumoniae 968733 MIC” value is 8 µg/mL.
On to `CC(=O)N[C@@H](Cc1c[nH]c2ccccc12)C(=O)N[C@@H](CCN)C(=O)N[C@H](C(=O)N[C@H]1CSSC[C@@H](C(=O)N[C@@H](Cc2ccc(O)cc2)C(=O)N[C@@H](CCN)C(=O)N[C@@H](CN)C(=O)N[C@@H](CCN)C(=O)N[C@@H](CCN)C(=O)N[C@@H](CCN)C(=O)N[C@H]2CCNC(=O)[C@H]([C@@H](C)O)NC(=O)[C@H](CCN)NC(=O)[C@H](CCN)NC(=O)[C@H](CC(C)C)NC(=O)[C@@H](Cc3ccccc3)NC(=O)[C@H](CCN)NC2=O)NC(=O)[C@H](C(C)C)NC(=O)[C@@H]2CCCN2C(=O)[C@@H](Cc2ccc(O)cc2)NC(=O)[C@H]([C@@H](C)O)NC1=O)C(C)(C)C` [Ex. 160] (Ac-W[Dab][Tle]CT[dY]PVCY[Dab][Dap][Dab][Dab][Dab][Dab][Dab][dF]L[Dab][Dab]T; disulfide 4-9; lactam 16-C), for which, in series [1], the “Hemolysis at 100 μg/mL” value is less than 1%. Further, the “Klebsiella pneumoniae SSI #3010 MIC” value in series [2] turned out to be 1 µg/mL. In addition, the “Escherichia coli ATCC 25922 MIC” value in series [3] was determined as 0.5 µg/mL. Moreover, the “Pseudomonas aeruginosa ATCC 27853 MIC” value in series [4] stood at 0.25 µg/mL. Besides, in the series on Escherichia coli 926415, the “Escherichia coli 926415 MIC” value worked out at 2 µg/mL. In addition, the “Acinetobacter baumannii 872842 MIC” value in series [5] is 1 µg/mL. In addition, the “Acinetobacter baumannii DSM 30008 MIC” value in series [6] stood at 0.5 µg/mL. Moreover, the “Klebsiella pneumoniae 968733 MIC” value in series [7] stood at 4 µg/mL.
For `CC(C)C[C@@H]1NC(=O)[C@@H](CC(C)C)NC(=O)[C@H](CCN)NC(=O)[C@@H](NC(=O)[C@H](CCN)NC(=O)[C@@H](NC(=O)[C@H](CCN)NC(=O)CN(C)C(=O)[C@H](CCN)NC(=O)[C@H](Cc2ccc(O)cc2)NC(=O)[C@@H]2CSSC[C@H](NC(=O)[C@@H](NC(=O)[C@H](CCN)NC(=O)[C@@H](N)Cc3c[nH]c4ccccc34)C(C)(C)C)C(=O)N[C@@H](CO)C(=O)N3CCC[C@@H]3C(=O)N3CCC[C@H]3C(=O)N[C@@H](CC(C)C)C(=O)N2)[C@@H](C)O)CCNC(=O)[C@H]([C@@H](C)O)NC(=O)[C@H](CCN)NC(=O)[C@H](CCN)NC1=O` [Ex. 161] (H-W[Dab][Tle]CS[dP]PLCY[Dab][Sar][Dab]T[Dab][Dab][Dab][dL]L[Dab][Dab]T; disulfide 4-9; lactam 16-C), the “Hemolysis at 100 μg/mL” value in series [1] is given as less than 1%. The “Klebsiella pneumoniae SSI #3010 MIC” value in series [2] was found to be 0.125 µg/mL. In addition, the “Escherichia coli ATCC 25922 MIC” value in series [3] worked out at 0.0625 µg/mL. For the same compound, the “Pseudomonas aeruginosa ATCC 27853 MIC” value in series [4] is 0.5 µg/mL. Also, the “Escherichia coli 926415 MIC” value with Escherichia coli 926415 is 0.25 µg/mL. The “Acinetobacter baumannii 872842 MIC” value in series [5] worked out at 0.5 µg/mL. Moreover, the “Acinetobacter baumannii DSM 30008 MIC” value in series [6] was determined as 0.25 µg/mL. Moreover, in series [7], the “Klebsiella pneumoniae 968733 MIC” value amounted to 2 µg/mL.
With `CC(C)C[C@@H]1NC(=O)[C@@H](CC(C)C)NC(=O)[C@H](CCN)NC(=O)[C@@H](NC(=O)[C@H](CCN)NC(=O)[C@@H](NC(=O)[C@H](CCN)NC(=O)CNC(=O)[C@H](CCN)NC(=O)[C@H](Cc2ccc(O)cc2)NC(=O)[C@H]2NC(=O)[C@H](CC(C)C)NC(=O)[C@@H]3CCCN3C(=O)[C@H]3CCCN3C(=O)[C@H](CO)NC(=O)[C@@H](NC(=O)[C@@H](NC(=O)[C@H](CCN)NC(=O)[C@@H](N)Cc3c[nH]c4ccccc34)C(C)C)CSSC2(C)C)[C@@H](C)O)CCNC(=O)[C@H]([C@@H](C)O)NC(=O)[C@H](CCN)NC(=O)[C@H](CCN)NC1=O` [Ex. 162] (H-W[Dab]VCS[dP]PL[Pen]Y[Dab]G[Dab]T[Dab][Dab][Dab][dL]L[Dab][Dab]T; disulfide 4-9; lactam 16-C), the “Hemolysis at 100 μg/mL” value in series [1] is less than 1%. In addition, in series [2], the “Klebsiella pneumoniae SSI #3010 MIC” value is 0.25 µg/mL. The “Escherichia coli ATCC 25922 MIC” value in series [3] amounted to 0.0625 µg/mL. In addition, the “Pseudomonas aeruginosa ATCC 27853 MIC” value in series [4] was 1 µg/mL. In addition, the “Escherichia coli 926415 MIC” value in the series with Escherichia coli 926415 is 0.25 µg/mL. Besides, the “Acinetobacter baumannii 872842 MIC” value in series [5] turned out to be 0.125 µg/mL. For the same compound, the “Acinetobacter baumannii DSM 30008 MIC” value in series [6] worked out at 0.5 µg/mL. Further, in series [7], the “Klebsiella pneumoniae 968733 MIC” value came to 2 µg/mL.
